The subject of the data set is CCRIS mutagenicity, Ames/micronucleus/aberration tests. The data set can be described thus: CCRIS mutagenicity studies.
The mark [1] stands for this setting: Test System: AMES SALMONELLA TYPHIMURIUM, Strain/Indicator: TA98, Metabolic Activation: NONE, Method: STANDARD PLATE.
The mark [2] stands for this setting: Test System: AMES SALMONELLA TYPHIMURIUM, Strain/Indicator: TA100, Metabolic Activation: NONE, Method: STANDARD PLATE.
The mark [3] stands for this setting: Test System: AMES SALMONELLA TYPHIMURIUM, Strain/Indicator: TA1535, Metabolic Activation: NONE, Method: STANDARD PLATE.
The mark [4] stands for this setting: Test System: AMES SALMONELLA TYPHIMURIUM, Strain/Indicator: TA1537, Metabolic Activation: NONE, Method: STANDARD PLATE.
[5] abbreviates: Test System: AMES SALMONELLA TYPHIMURIUM, Strain/Indicator: TA1538, Metabolic Activation: NONE, Method: STANDARD PLATE.
[6] abbreviates: Test System: MOUSE LYMPHOMA, Strain/Indicator: L5178Y (TK+/TK-), Metabolic Activation: NONE, Method: SUSPENSION/PLATE.
The mark [7] stands for this setting: Test System: MOUSE LYMPHOMA, Strain/Indicator: L5178Y (TK+/TK-), Metabolic Activation: RAT, LIVER, S-9, AROCLOR 1254, Method: SUSPENSION/PLATE.

The text below walks through data of PubChem BioAssay AID1259407 (Chemical Carcinogenesis Research Information System (CCRIS), 2018).

The source made the active and inactive calls. How the calls were made is not given here.

Turning to `CCCCCCCCC=O`, the mutagenic call was “inactive; negative” (End Point: IN VITRO CHROMOSOMAL ABERRATIONS, Test System: RAT HEPATOCYTES, Metabolic Activation: NONE); “inactive; negative” (End Point: IN VITRO MICRONUCLEUS, Test System: RAT HEPATOCYTES, Metabolic Activation: NONE); “inactive; negative” (Test System: AMES SALMONELLA TYPHIMURIUM, Strain/Indicator: TA98, Metabolic Activation: HAMSTER, LIVER, S-9, AROCLOR 1254, Method: STANDARD PLATE); “inactive; negative” under setting [1]; “inactive; negative” (Test System: AMES SALMONELLA TYPHIMURIUM, Strain/Indicator: TA98, Metabolic Activation: RAT, LIVER, S-9, AROCLOR 1254, Method: STANDARD PLATE); “inactive; negative” (Test System: AMES SALMONELLA TYPHIMURIUM, Strain/Indicator: TA98, Metabolic Activation: RAT, LIVER, S-9, AROCLOR, Method: STANDARD PLATE). The mutagenic call reads like this: (Test System: AMES SALMONELLA TYPHIMURIUM, Strain/Indicator: TA100, Metabolic Activation: HAMSTER, LIVER, S-9, AROCLOR 1254, Method: STANDARD PLATE) “inactive; negative”; under setting [2], “inactive; negative”; (Test System: AMES SALMONELLA TYPHIMURIUM, Strain/Indicator: TA100, Metabolic Activation: RAT, LIVER, S-9, AROCLOR 1254, Method: STANDARD PLATE) “inactive; negative”; (Test System: AMES SALMONELLA TYPHIMURIUM, Strain/Indicator: TA100, Metabolic Activation: RAT, LIVER, S-9, AROCLOR, Method: STANDARD PLATE) “inactive; negative”; (Test System: AMES SALMONELLA TYPHIMURIUM, Strain/Indicator: TA1535, Metabolic Activation: HAMSTER, LIVER, S-9, AROCLOR 1254, Method: STANDARD PLATE) “inactive; negative”; under setting [3], “inactive; negative”. Moreover, the mutagenic call reads like this: (Test System: AMES SALMONELLA TYPHIMURIUM, Strain/Indicator: TA1535, Metabolic Activation: RAT, LIVER, S-9, AROCLOR 1254, Method: STANDARD PLATE) “inactive; negative”; (Test System: AMES SALMONELLA TYPHIMURIUM, Strain/Indicator: TA1537, Metabolic Activation: HAMSTER, LIVER, S-9, AROCLOR 1254, Method: STANDARD PLATE) “inactive; negative”; under setting [4], “inactive; negative”; (Test System: AMES SALMONELLA TYPHIMURIUM, Strain/Indicator: TA1537, Metabolic Activation: RAT, LIVER, S-9, AROCLOR 1254, Method: STANDARD PLATE) “inactive; negative”; (Test System: AMES SALMONELLA TYPHIMURIUM, Strain/Indicator: TA1538, Metabolic Activation: HAMSTER, LIVER, S-9, AROCLOR 1254, Method: STANDARD PLATE) “inactive; negative”; under setting [5], “inactive; negative”. In addition, the mutagenic call (Test System: AMES SALMONELLA TYPHIMURIUM, Strain/Indicator: TA1538, Metabolic Activation: RAT, LIVER, S-9, AROCLOR 1254, Method: STANDARD PLATE) is “inactive; negative”; the mutagenic call (Test System: AMES SALMONELLA TYPHIMURIUM, Strain/Indicator: UTH8413, Metabolic Activation: NONE, Method: STANDARD PLATE) is “inactive; negative”; the mutagenic call (Test System: AMES SALMONELLA TYPHIMURIUM, Strain/Indicator: UTH8413, Metabolic Activation: RAT, LIVER, S-9, AROCLOR, Method: STANDARD PLATE) was “inactive; negative”; the mutagenic call (Test System: AMES SALMONELLA TYPHIMURIUM, Strain/Indicator: UTH8414, Metabolic Activation: NONE, Method: STANDARD PLATE) is “inactive; negative”; the mutagenic call (Test System: AMES SALMONELLA TYPHIMURIUM, Strain/Indicator: UTH8414, Metabolic Activation: RAT, LIVER, S-9, AROCLOR, Method: STANDARD PLATE) is “inactive; negative”; the mutagenic call (Test System: CHINESE HAMSTER V-79, Strain/Indicator: V-79/6-THIOGUANINE (HGPRT), Metabolic Activation: NONE, Method: REPLATING) was “active; positive”. For the same compound, the mutagenic call by setting is: (Test System: CHINESE HAMSTER V-79, Strain/Indicator: V-79/OUABAIN (NA/K), Metabolic Activation: NONE, Method: REPLATING) “active; positive”; under setting [6], “inactive; negative. reevaluation of results: equivocal”; under setting [7], “inactive; negative. reevaluation of results: equivocal”; (Test System: UDS HUMAN HEPATOCYTES, Strain/Indicator: THY INCORP, Metabolic Activation: NONE, Method: AUTORADIOGRAPHY) “inactive; negative”; (Test System: UDS RAT HEPATOCYTES, Strain/Indicator: THY INCORP, Metabolic Activation: NONE, Method: AUTORADIOGRAPHY) “inactive; negative”.

For `O=C1C=CC(=O)N1c1ccc(Cc2ccc(N3C(=O)C=CC3=O)cc2)cc1`, the mutagenic call reads like this: (Test System: AMES SALMONELLA TYPHIMURIUM, Strain/Indicator: TA98, Metabolic Activation: HAMSTER, LIVER, S-9, AROCLOR 1254 (10%), Method: STANDARD PLATE) “inactive; negative”; under setting [1], “inactive; negative”; (Test System: AMES SALMONELLA TYPHIMURIUM, Strain/Indicator: TA98, Metabolic Activation: RAT, LIVER, S-9, AROCLOR 1254 (10%), Method: STANDARD PLATE) “inactive; negative”; (Test System: AMES SALMONELLA TYPHIMURIUM, Strain/Indicator: TA100, Metabolic Activation: HAMSTER, LIVER, S-9, AROCLOR 1254 (10%), Method: STANDARD PLATE) “inactive; negative”; under setting [2], “inactive; negative”; (Test System: AMES SALMONELLA TYPHIMURIUM, Strain/Indicator: TA100, Metabolic Activation: RAT, LIVER, S-9, AROCLOR 1254 (10%), Method: STANDARD PLATE) “inactive; negative”. In addition, the mutagenic call by setting is: (Test System: AMES SALMONELLA TYPHIMURIUM, Strain/Indicator: TA1535, Metabolic Activation: HAMSTER, LIVER, S-9, AROCLOR 1254 (10%), Method: STANDARD PLATE) “inactive; negative”; under setting [3], “inactive; negative”; (Test System: AMES SALMONELLA TYPHIMURIUM, Strain/Indicator: TA1535, Metabolic Activation: RAT, LIVER, S-9, AROCLOR 1254 (10%), Method: STANDARD PLATE) “inactive; negative”; (Test System: AMES SALMONELLA TYPHIMURIUM, Strain/Indicator: TA1537, Metabolic Activation: HAMSTER, LIVER, S-9, AROCLOR 1254 (10%), Method: STANDARD PLATE) “inactive; negative”; under setting [4], “inactive; negative”; (Test System: AMES SALMONELLA TYPHIMURIUM, Strain/Indicator: TA1537, Metabolic Activation: RAT, LIVER, S-9, AROCLOR 1254 (10%), Method: STANDARD PLATE) “inactive; negative”. The mutagenic call was “inactive; negative” (Test System: AMES SALMONELLA TYPHIMURIUM, Strain/Indicator: TA1538, Metabolic Activation: HAMSTER, LIVER, S-9, AROCLOR 1254 (10%), Method: STANDARD PLATE); “inactive; negative” under setting [5]; “inactive; negative” (Test System: AMES SALMONELLA TYPHIMURIUM, Strain/Indicator: TA1538, Metabolic Activation: RAT, LIVER, S-9, AROCLOR 1254 (10%), Method: STANDARD PLATE); “inactive; negative. reevaluation of results: negative” under setting [6]; “active; positive. reevaluation of results: equivocal” under setting [7].

Consider `Cc1cc2ccc3cc4ccccc4c4ccc(c1)c2c34`, for which the mutagenic call reads like this: (Test System: AMES SALMONELLA TYPHIMURIUM, Strain/Indicator: TA100, Metabolic Activation: RAT, INTACT HEPATOCYTES, AROCLOR 1254, Method: PREINCUBATION) “active; positive”; (Test System: AMES SALMONELLA TYPHIMURIUM, Strain/Indicator: TA100, Metabolic Activation: RAT, NADPH-FORTIFIED HOMOGENIZED HEPATOCYTES, AROCLOR 1254, Method: PREINCUBATION) “active; positive”.

For the compound `CCCCCC[C@@H](O)[C@@H]1C2=C(C[C@H]([C@H](O)[C@@H]3CC=CC(=O)O3)CC3=C(C(=O)OC3=O)[C@@H]1O)C(=O)OC2=O`, the mutagenic call (Test System: AMES SALMONELLA TYPHIMURIUM, Strain/Indicator: TA100, Metabolic Activation: NONE, Method: PREINCUBATION) is “inactive; negative” and the mutagenic call (Test System: AMES SALMONELLA TYPHIMURIUM, Strain/Indicator: TA100, Metabolic Activation: RAT, LIVER, S-9, PHENOBARBITAL, Method: PREINCUBATION) was “inactive; negative”.
